pIC50, pKi: −log10 of the molar value. Values after ≈ are worked out from the molar mass of the structure shown.
Tests used:
[1] = molecular target: T1, MAP kinase-activated protein kinase 2 (Homo sapiens, UniProt P49137); assay: Competitive inhibition of MAPKAP-K2 using KKLNRTLSVA as substrate and [33P]-gamma-ATP by Lineweaver-Burke plot analysis
[2] = Apparent permeability across apical to basolateral side in human Caco2 cells; type: ADME, cell-based; conditions: Caco-2
[3] = Intrinsic clearance in mouse liver microsomes; type: ADME, Microsome; conditions: read-out: CLH
[4] = Solubility of the compound at pH 7.4; type: physicochemical; conditions: buffer
[5] = Intrinsic clearance in human liver microsomes; type: ADME, Microsome; conditions: read-out: CLH
[6] = molecular target: Mitogen-activated protein kinase 9 (Homo sapiens, UniProt P45984); assay: Inhibition of JNK2
[7] = molecular target: T2, Rho-associated protein kinase 2 (Homo sapiens, UniProt O75116); assay: Inhibition of ROK2
Target sequence in this assay (O75116 whole entry): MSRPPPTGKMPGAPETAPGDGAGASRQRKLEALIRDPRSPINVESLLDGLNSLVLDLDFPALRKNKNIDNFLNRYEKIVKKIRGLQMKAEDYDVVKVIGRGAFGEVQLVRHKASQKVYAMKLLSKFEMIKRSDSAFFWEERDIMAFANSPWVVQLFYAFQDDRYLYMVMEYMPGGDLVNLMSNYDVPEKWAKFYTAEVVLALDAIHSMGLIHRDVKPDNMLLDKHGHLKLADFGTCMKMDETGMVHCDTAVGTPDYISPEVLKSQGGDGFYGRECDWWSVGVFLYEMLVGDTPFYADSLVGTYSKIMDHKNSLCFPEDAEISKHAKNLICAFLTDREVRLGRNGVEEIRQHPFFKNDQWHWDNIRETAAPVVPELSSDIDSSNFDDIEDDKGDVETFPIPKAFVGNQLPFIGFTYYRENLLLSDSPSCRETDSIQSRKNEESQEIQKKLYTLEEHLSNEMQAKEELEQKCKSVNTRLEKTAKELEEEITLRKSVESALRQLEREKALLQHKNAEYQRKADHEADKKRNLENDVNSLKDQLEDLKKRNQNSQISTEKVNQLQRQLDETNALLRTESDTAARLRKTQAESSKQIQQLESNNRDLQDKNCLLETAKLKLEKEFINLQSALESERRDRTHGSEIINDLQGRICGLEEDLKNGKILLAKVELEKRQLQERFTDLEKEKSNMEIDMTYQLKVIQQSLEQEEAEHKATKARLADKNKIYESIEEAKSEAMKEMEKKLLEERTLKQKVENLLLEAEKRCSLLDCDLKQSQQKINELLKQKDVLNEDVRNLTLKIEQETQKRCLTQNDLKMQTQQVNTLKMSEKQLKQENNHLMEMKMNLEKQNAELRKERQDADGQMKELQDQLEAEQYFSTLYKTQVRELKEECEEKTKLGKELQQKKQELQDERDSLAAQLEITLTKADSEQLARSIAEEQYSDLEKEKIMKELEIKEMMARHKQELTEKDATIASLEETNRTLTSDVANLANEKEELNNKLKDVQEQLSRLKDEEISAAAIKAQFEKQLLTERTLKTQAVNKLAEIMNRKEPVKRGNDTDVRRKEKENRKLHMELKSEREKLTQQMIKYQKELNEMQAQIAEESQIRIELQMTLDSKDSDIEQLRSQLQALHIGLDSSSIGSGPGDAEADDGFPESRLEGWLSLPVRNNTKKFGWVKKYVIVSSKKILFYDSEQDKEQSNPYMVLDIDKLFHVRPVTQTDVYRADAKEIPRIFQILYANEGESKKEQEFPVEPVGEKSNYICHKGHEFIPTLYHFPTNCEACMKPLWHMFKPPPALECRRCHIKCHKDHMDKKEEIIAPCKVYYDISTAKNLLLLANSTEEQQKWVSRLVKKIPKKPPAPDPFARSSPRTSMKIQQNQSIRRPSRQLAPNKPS

[8] = molecular target: MAP kinase-activated protein kinase 5 (Homo sapiens, UniProt Q8IW41); assay: Inhibition of PRAK
[9] = molecular target: T3, Mitogen-activated protein kinase 14 (Homo sapiens, UniProt Q16539); assay: Inhibition of P38alpha
[10] = molecular target: Tyrosine-protein kinase Lck (Homo sapiens, UniProt P06239); assay: Inhibition of LCK
[11] = Inhibition of PHK
[12] = molecular target: Glycogen synthase kinase-3 beta (Homo sapiens, UniProt P49841); assay: Inhibition of GSK3beta
[13] = molecular target: T1, MAP kinase-activated protein kinase 2; assay: Inhibition of MAPKAP-K2 using KKLNRTLSVA as substrate and [33P]-gamma-ATP after 30 mins by liquid scintillation counter
[14] = molecular target: Cyclin-dependent kinase 2 (Homo sapiens, UniProt P24941)
Description: Inhibition of CDK2 after 60 mins using [33P]-gamma-ATP by liquid scintillation counter

Serum [15] = assay: Drug level in C57BL/6 mouse serum at 100 mg/kg, po; type: ADME, organism-based; design: dose 100 mg/kg, route oral; conditions: in vivo, read-out: Drug uptake
Serum [16] = assay: Drug level in C57BL/6 mouse serum at 60 mg/kg, po; type: ADME, organism-based; design: dose 60 mg/kg, route oral; conditions: in vivo, read-out: Drug uptake
Serum [17] = assay: Drug level in C57BL/6 mouse serum at 30 mg/kg, po; type: ADME, organism-based; design: dose 30 mg/kg, route oral; conditions: in vivo, read-out: Drug uptake
Serum [18] = assay: Drug level in C57BL/6 mouse serum at 10 mg/kg, po; type: ADME, organism-based; design: dose 10 mg/kg, route oral; conditions: in vivo, read-out: Drug uptake
Serum [19] = assay: Drug uptake in po dosed C57BL/6 mouse serum; type: ADME, organism-based; conditions: in vivo
Mus musculus [20] = assay: Antiinflammatory activity in po dosed C57BL/6 mouse assessed as decrease in LPS-induced serum TNFalpha level administered 30 mins prior to LPS challenge measured 60 mins post LPS challenge by ELISA; type: functional, organism-based
Mus musculus [21] = assay: Antiinflammatory activity in C57BL/6 mouse assessed as LPS-induced serum TNFalpha level at 100 mg/kg, po administered 30 mins prior to LPS challenge measured 60 mins post LPS challenge by ELISA relative to vehicle-treated control; type: functional
[22] = Total clearance in mouse at 1 mg/kg, iv; type: ADME, organism-based; design: dose 1 mg/kg, route intravenous; conditions: in vivo
[23] = Half life in mouse at 1 mg/kg, iv; type: ADME, organism-based; design: dose 1 mg/kg, route intravenous; conditions: in vivo
[24] = AUC (0 to 24 hrs) in mouse at 1 mg/kg, po; type: ADME, organism-based; design: time < 24 hr, dose 1 mg/kg, route oral; conditions: plasma
[25] = Oral bioavailability in mouse at 1 mg/kg; type: ADME, organism-based; conditions: in vivo
[26] = molecular target: MAP kinase-activated protein kinase 2 (Mus musculus, UniProt P49138); assay: Inhibition of MAPKAP-K2 in mouse whole blood assessed as inhibition of LPS-induced TNFalpha production by ELISA
THP-1 = assay: Cytotoxicity against human THP1 cells assessed as cell viability by MTS assay; type: cell-based
[27] = Plasma protein binding in mouse; type: ADME, cell-free; conditions: read-out: PPB (converted)
[28] = molecular target: Ribosomal protein S6 kinase alpha-3 (Homo sapiens) (UniProt P51812); assay: Inhibition of human RSK2 at 10 uM
[29] = molecular target: MAP kinase-activated protein kinase 5 (Homo sapiens) (UniProt Q8IW41); assay: Inhibition of human PRAK at 10 uM
[30] = molecular target: Protein kinase C gamma type (Homo sapiens) (UniProt P05129); assay: Inhibition of human PKCgamma at 10 uM
[31] = molecular target: T2, Rho-associated protein kinase 2; assay: Inhibition of human ROCK2 at 10 uM
Target sequence in this assay (O75116 whole entry, looked up): as the sequence (O75116 whole entry) above

Homo sapiens = species: Homo sapiens; assay: Inhibition of human PKA at 10 uM
[32] = molecular target: Protein kinase C alpha type (Homo sapiens) (UniProt P17252); assay: Inhibition of human PKCalpha at 10 uM
[33] = molecular target: Ribosomal protein S6 kinase beta-1 (Homo sapiens) (UniProt P23443); assay: Inhibition of human p70S6K at 10 uM
[34] = molecular target: 3-phosphoinositide-dependent protein kinase 1 (Homo sapiens) (UniProt O15530); assay: Inhibition of human PDK1 at 10 uM
[35] = molecular target: RAC-alpha serine/threonine-protein kinase (Homo sapiens) (UniProt P31749); assay: Inhibition of human PKBalpha at 10 uM
[36] = molecular target: Serine/threonine-protein kinase Chk1 (Homo sapiens) (UniProt O14757); assay: Inhibition of human CHK1 at 10 uM
Rattus norvegicus [37] = species: Rattus norvegicus; assay: Inhibition of rat CAMK2 at 10 uM
[38] = molecular target: Cyclin-dependent kinase 1/cyclin B1 (Homo sapiens) (UniProt P06493+P14635); assay: Inhibition of human Cdk1/cyclin B at 10 uM; type: protein-complex assay
[39] = molecular target: Mitogen-activated protein kinase 1 (Homo sapiens) (UniProt P28482); assay: Inhibition of human ERK2 at 10 uM
[40] = molecular target: Inhibitor of nuclear factor kappa-B kinase subunit beta (Homo sapiens) (UniProt O14920); assay: Inhibition of human IKKbeta at 10 uM
[41] = molecular target: Mitogen-activated protein kinase 8 (Homo sapiens) (UniProt P45983); assay: Inhibition of human JNK1alpha1 at 10 uM
[42] = molecular target: T3, Mitogen-activated protein kinase 14; assay: Inhibition of human p38alpha at 10 uM
[43] = molecular target: Mitogen-activated protein kinase 12 (Homo sapiens) (UniProt P53778); assay: Inhibition of human p38gamma at 10 uM
[44] = molecular target: Mitogen-activated protein kinase 13 (Homo sapiens) (UniProt O15264); assay: Inhibition of human p38delta at 10 uM
[45] = molecular target: Dual specificity mitogen-activated protein kinase kinase 4 (Mus musculus) (UniProt P47809); assay: Inhibition of mouse MKK4 at 10 uM
[46] = molecular target: Dual specificity mitogen-activated protein kinase kinase 6 (Homo sapiens) (UniProt P52564); assay: Inhibition of human MKK6 at 10 uM
[47] = molecular target: Dual specificity mitogen-activated protein kinase kinase 7 (Homo sapiens) (UniProt O14733); assay: Inhibition of human MKK7beta at 10 uM
[48] = molecular target: Dual specificity mitogen-activated protein kinase kinase 1 (Homo sapiens) (UniProt Q02750); assay: Inhibition of human MEK1 at 10 uM
Rattus norvegicus [49] = species: Rattus norvegicus; assay: Inhibition of rat AMPK at 10 uM
[50] = molecular target: Receptor-type tyrosine-protein kinase FLT3 (Homo sapiens) (UniProt P36888); conditions: 10 uM
Description: Inhibition of human FLT3 at 10 uM

[51] = molecular target: Tyrosine-protein kinase Fes/Fps (Homo sapiens) (UniProt P07332); conditions: 10 uM
Description: Inhibition of human FES at 10 uM

[52] = molecular target: Tyrosine-protein kinase Yes (Homo sapiens) (UniProt P07947); conditions: 10 uM
Description: Inhibition of human YES at 10 uM

T1 sequence (P49137 whole entry): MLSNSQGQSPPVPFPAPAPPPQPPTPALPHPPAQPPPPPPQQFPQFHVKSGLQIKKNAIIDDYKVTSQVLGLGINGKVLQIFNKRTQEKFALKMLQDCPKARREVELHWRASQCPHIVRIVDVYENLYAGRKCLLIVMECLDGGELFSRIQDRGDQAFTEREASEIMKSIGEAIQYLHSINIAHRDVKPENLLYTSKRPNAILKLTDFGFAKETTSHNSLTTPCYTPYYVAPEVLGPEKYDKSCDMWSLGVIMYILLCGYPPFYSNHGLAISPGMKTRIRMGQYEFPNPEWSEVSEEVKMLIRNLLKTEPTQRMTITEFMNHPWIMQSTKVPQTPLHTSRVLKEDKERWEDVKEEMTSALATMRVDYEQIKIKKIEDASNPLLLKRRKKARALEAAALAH
T3 sequence (Q16539 whole entry): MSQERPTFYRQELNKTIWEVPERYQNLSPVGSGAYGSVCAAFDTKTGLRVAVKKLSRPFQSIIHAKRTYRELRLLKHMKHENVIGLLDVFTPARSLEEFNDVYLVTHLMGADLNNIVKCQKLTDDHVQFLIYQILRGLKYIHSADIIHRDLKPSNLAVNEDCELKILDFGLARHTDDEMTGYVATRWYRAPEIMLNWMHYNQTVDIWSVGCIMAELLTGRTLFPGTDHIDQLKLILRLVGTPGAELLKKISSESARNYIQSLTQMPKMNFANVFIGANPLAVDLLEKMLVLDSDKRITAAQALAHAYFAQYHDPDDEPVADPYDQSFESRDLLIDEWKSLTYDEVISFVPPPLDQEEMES
Chain of Mitogen-activated protein kinase 12 (Homo sapiens) (P53778 whole entry): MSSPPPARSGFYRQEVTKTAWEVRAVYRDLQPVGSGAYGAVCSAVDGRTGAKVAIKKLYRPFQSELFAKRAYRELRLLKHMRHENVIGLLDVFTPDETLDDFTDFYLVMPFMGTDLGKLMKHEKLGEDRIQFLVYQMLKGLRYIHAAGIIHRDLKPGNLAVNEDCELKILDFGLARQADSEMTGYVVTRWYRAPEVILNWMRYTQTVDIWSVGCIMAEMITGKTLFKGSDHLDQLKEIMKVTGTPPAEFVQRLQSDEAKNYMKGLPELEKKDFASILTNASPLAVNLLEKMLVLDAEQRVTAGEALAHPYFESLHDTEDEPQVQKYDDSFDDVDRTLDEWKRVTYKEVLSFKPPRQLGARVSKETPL
Chain of Mitogen-activated protein kinase 8 (Homo sapiens) (P45983 whole entry): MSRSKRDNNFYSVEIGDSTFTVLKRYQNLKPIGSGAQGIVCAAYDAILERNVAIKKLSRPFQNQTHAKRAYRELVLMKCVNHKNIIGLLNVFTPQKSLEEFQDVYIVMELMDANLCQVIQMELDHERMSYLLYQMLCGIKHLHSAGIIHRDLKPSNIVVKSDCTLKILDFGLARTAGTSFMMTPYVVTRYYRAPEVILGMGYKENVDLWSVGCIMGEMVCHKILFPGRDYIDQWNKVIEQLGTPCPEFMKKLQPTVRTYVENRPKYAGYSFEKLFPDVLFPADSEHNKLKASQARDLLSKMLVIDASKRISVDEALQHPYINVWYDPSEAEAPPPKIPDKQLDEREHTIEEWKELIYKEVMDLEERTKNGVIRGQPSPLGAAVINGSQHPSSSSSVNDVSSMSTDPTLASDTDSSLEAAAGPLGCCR
Chain of Tyrosine-protein kinase Fes/Fps (Homo sapiens) (P07332 whole entry): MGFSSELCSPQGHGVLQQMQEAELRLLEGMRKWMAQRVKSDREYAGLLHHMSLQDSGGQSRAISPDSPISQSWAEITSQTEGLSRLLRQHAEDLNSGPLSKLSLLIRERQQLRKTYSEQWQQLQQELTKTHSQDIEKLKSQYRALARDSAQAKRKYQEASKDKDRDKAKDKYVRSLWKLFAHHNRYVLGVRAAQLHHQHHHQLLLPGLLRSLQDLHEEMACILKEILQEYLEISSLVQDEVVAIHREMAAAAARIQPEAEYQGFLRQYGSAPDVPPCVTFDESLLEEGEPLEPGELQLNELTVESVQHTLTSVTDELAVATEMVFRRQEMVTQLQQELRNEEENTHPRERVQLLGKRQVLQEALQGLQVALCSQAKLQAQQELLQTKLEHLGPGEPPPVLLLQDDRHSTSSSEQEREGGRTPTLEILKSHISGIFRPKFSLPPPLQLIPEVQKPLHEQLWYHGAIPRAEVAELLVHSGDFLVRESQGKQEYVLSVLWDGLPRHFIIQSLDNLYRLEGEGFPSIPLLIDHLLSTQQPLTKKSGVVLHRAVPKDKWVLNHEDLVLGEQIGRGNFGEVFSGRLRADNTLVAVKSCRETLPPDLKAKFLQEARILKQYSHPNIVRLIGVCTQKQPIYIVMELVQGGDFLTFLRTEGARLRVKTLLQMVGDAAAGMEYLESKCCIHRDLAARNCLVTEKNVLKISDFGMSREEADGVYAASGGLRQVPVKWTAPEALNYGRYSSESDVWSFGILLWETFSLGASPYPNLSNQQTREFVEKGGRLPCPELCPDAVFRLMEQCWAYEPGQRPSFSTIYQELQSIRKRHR
Chain of 3-phosphoinositide-dependent protein kinase 1 (Homo sapiens) (O15530 whole entry): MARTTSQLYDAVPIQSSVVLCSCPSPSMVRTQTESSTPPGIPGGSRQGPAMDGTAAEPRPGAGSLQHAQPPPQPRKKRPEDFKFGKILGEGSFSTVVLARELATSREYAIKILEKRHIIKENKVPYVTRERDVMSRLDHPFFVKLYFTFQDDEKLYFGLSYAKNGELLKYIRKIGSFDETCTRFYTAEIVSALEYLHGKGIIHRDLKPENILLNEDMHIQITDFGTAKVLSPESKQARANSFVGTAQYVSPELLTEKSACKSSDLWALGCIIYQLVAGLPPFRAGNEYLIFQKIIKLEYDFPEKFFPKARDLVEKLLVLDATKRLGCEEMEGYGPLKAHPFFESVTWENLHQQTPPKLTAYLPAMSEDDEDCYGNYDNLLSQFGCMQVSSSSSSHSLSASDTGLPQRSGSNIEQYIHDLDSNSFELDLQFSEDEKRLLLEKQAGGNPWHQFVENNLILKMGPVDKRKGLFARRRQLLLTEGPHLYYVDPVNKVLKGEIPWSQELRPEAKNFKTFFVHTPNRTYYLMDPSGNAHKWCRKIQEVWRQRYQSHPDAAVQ
Chain of Dual specificity mitogen-activated protein kinase kinase 1 (Homo sapiens) (Q02750 whole entry): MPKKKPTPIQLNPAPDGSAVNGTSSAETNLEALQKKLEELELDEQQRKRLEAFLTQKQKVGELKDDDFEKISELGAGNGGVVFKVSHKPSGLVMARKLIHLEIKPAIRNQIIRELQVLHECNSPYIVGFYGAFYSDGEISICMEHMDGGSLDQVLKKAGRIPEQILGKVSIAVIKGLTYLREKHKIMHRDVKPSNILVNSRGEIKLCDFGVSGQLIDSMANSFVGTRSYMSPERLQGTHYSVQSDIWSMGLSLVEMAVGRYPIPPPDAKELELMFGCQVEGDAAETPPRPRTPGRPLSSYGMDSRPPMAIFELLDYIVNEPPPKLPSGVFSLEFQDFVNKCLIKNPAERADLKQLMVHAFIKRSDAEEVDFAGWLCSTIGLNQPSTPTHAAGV

For N[C@H]1CC[C@H](Nc2cc(Nc3ccc(F)c(Cl)c3)n3nccc3n2)CC1, the pKi [1] was 5.22, the Papp A→B [2] was 7.1 ×10⁻⁶ cm/s and the microsomal CLint [3] was 59 µL/min/mg. For the same molecule, the solubility [4] was 75 µg/mL (≈ 200 µM), the microsomal CLint [5] was under 10 µL/min/mg and the pIC50 [6] was 4.60. It also gave a pIC50 [7] of 4.85, a pIC50 [8] of 4.96 and a pIC50 [9] of under 4.00. It also gave a pIC50 [10] of 3.52, a pIC50 [11] of 5.52 and a pIC50 [12] of 4.64. The pIC50 [13] was 5.89 and the pIC50 [14] was 7.26.
CCOc1ccc(Nc2c(C)c(N[C@H]3CCCNC3)nc3ccnn23)cc1 gave a concentration (Serum [15]) of 10 µM, a concentration (Serum [16]) of 8 µM and a concentration (Serum [17]) of 5 µM. For the same molecule, the concentration (Serum [18]) was 2 µM, the Drug uptake (Serum [19]) was “Dose-dependent effect” and the Activity (Mus musculus [20]) was “Dose-dependent effect”. For the same molecule, the Activity (Mus musculus [21]) was 14%, the clearance [22] was 68.3 mL/min/kg and the half-life [23] was 2.2 h. It also gave an AUC(0-t) at 24 h [24] of 0.438 µM·h, a bioavailability [25] of 66% and a pIC50 [26] of 5.30. For the same molecule, the pIC50 (THP-1) was 4.13, the fraction unbound [27] was 0.114 and the Papp A→B [2] was 28.3 ×10⁻⁶ cm/s. The microsomal CLint [3] was 11 µL/min/mg, the solubility [4] was 70 µg/mL (≈ 191 µM) and the microsomal CLint [5] was under 10 µL/min/mg. The inhibition [28] was 9%, the inhibition [29] was 62% and the inhibition [30] was -5%. For the same molecule, the inhibition [31] was 23%, the inhibition (Homo sapiens) was 0% and the inhibition [32] was 5%. The inhibition [33] was -1%, the inhibition [34] was -9% and the inhibition [35] was 3%. For the same molecule, the inhibition [36] was 30%, the inhibition (Rattus norvegicus [37]) was 41% and the inhibition [38] was 12%. It also gave an inhibition [39] of 7%, an inhibition [40] of 7% and an inhibition [41] of 0%. It also gave an inhibition [42] of 4%, an inhibition [43] of -2% and an inhibition [44] of 3%. It also gave an inhibition [45] of 15%, an inhibition [46] of 24% and an inhibition [47] of 26%. The inhibition [48] was 19%, the inhibition (Rattus norvegicus [49]) was 35% and the inhibition [50] was over 75%. The inhibition [51] was over 75% and the inhibition [52] was over 75%.

Source: ChEMBL document CHEMBL2163300, “Mitogen-activated protein kinase-activated protein kinase 2 (MAPKAP-K2) as an antiinflammatory target: discovery and in vivo activity of selective pyrazolo[1,5-a]pyrimidine inhibitors using a focused library and structure-based optimization approach” (J Med Chem, 2012)
